The record followed here is patent US20110268789A1, “USE OF PITUITARY ADENYLATE CYCLASE-ACTIVATING POLYPEPTIDE (PACAP) AND PACAP ANALOGS AS ADJUNCTIVE TREATMENTS WITH ANTICANCER AGENTS” (priority 2008, published 2011).

Assay [1] deals with HK-2 human kidney cells. As to the kind of experiment: Cell-based adhesion assay: binding of cisplatin-treated renal cells to extracellular matrix components. Particulars: HK-2 cells, 50 μM cisplatin, FIG. 5. The text has this:
The wells of a 96-well plate were coated with […] fibronectin, collagen I or collagen IV. […] PACAP38 partially reversed the decrease in binding to fibronectin and collagen IV in the cells exposed to cisplatin. Each value represents the mean plus/minus the standard error of four determinations. **p<0.01 compared to the corresponding cisplatin-treated (control) cells.

A further assay concerns Male C57BL/6 mice. As to the kind of experiment: Cisplatin-induced nephrotoxicity in mice. In kind it is in vivo, mouse. To be noted: cisplatin 20 mg/kg i.p. On the procedure:
(§1) Male C57BL/6 mice were given a single intraperitoneal injection of 20 mg/kg of cisplatin. Twenty nanomoles of PACAP38 were given intraperitoneally 1 hour before the injection of cisplatin and additional doses were given at 24 and 48 hours after the initial dose. The control group of mice was injected intraperitoneally with the same volume of saline as for the injections of cisplatin and PACAP38 on the same schedule. The mice were euthanized 24 hours after the final injection of PACAP38. Each value represents the mean plus/minus the standard error of four determinations. ***p<0.001 and **p<0.01 compared to the group treated only with cisplatin.
as §1, with “PACAP38. TNF-α was extracted from one kidney of each mouse and quantified with an enzyme-linked immunosorbent assay.” for “PACAP38.”
Male C57BL/6 mice were given a single intraperitoneal injection of 20 mg/kg of cisplatin. Twenty nanomoles of PACAP38 were given intraperitoneally 1 hour before the injection of cisplatin and additional doses were given at 24 and 48 hours after the initial dose. The control group of mice were injected intraperitoneally with the same volume of saline as for the injections of cisplatin and PACAP38 on the same schedule. The mice were euthanized 24 hours after the final injection of PACAP38, and the kidneys were removed and fixed in 10% formalin. The fixed sections were stained with hematoxylin and eosin. The sections of the kidneys from control mice show intact renal tubular epithelial cells and well-preserved brush border membranes. The kidneys from mice treated with cisplatin had extensive tubular damage, tubular dilations, intratubular debris, and intratubular casts. […] Tubular damage was more pronounced in the outer cortex in the cisplatin treated mice. The photomicrographs on the left side were made at a lower magnification (×160) than the photomicrographs on the right side (×320). The results described in FIGS. 5, 6, 7, and 8 were from the same experiment.
as §1, with “six” for “four”
as §1, with “The cytoprotective effect of PACAP38 against cisplatin-induced nephrotoxicity was also seen in a common in vivo model. Male” for “Male”, “PACAP38.” for “PACAP38. Each value represents the mean plus/minus the standard error of four determinations. ***p<0.001 and **p<0.01 compared to the group treated only with cisplatin.”

Assay [2] concerns HK-2 human kidney cells. As to the kind of experiment: Doxorubicin-induced apoptotic cell death of human renal proximal tubule epithelial cells. To be noted: HK-2 cells, peptide added to the medium, FIG. 11. In kind it is cell-based. On the procedure: The HK-2 human kidney cells were cultured in Keratinocyte-Serum Free Medium supplemented with recombinant epidermal growth factor and bovine pituitary extract. […] Each value represents the mean plus/minus the standard deviation of four determinations in three replicate experiments. **p<0.01 and *p<0.05 compared to the doxorubicin-treated (control) cells.
At the highest dose tested (10^−6 M), all three peptides reduced the apoptotic cell death of these epithelial cells by more than 60%.

Assay [3] concerns light-chain immunoglobulin-secreting human myeloma cells. Kind of assay: Doxorubicin-induced apoptotic cell death of myeloma cells. Type of assay: cell-based. On the procedure: The light-chain immunoglobulin-secreting human myeloma cells were cultured in RPMI 1640 medium supplemented with 10% non-inactivated fetal bovine serum and 0.05 mM 2-mercaptoethanol. The effects of PACAP38, and [Ala^16,17,D-Lys^38]PACAP38 on apoptotic cell death was assessed by the quantitative determination of cytoplasmic histone-associated DNA-fragmentation (mono- and oligonucleosomes) after exposure to doxorubicin for 48 hours. Each value represents the mean plus/minus the standard deviation of three determinations. **p<0.01 and *p<0.05 compared to the doxorubicin-treated (control) cells.
At the lowest dose tested (10^−8 M), both peptides reduced the doxorubicin-induced apoptotic cell death of these malignant plasma cells.

Assay [4] shares this test system. As to the kind of experiment: Thalidomide-induced apoptotic cell death of myeloma cells. Type of assay: cell-based. On the procedure:
The light-chain immunoglobulin-secreting human myeloma cells were cultured in RPMI 1640 medium supplemented with 10% non-inactivated fetal bovine serum and 0.05 mM 2-mercaptoethanol. The effects of PACAP38 on apoptotic cell death was assessed by the quantitative determination of cytoplasmic histone-associated DNA-fragmentation (mono- and oligonucleosomes) after exposure to thalidomide for 48 hours. Each value represents the mean plus/minus the standard deviation of four determinations. **p<0.01 and *p<0.05 compared to the thalidomide-treated (control) cells.

Take PACAP38: the “reversal of inhibitory effect of cisplatin on binding to fibronectin-based or collagen IV-based matrix” value with HK-2 human kidney cells [1] was “significantly reversed”. Moreover, the “increase in TNF-α in the kidney” value in the assay with Male C57BL/6 mice (20 nanomoles peptide i.p. 1 h before and at 24 and 48 h, ELISA, FIG. 8) is “significantly reduced”. Also, the “increase in serum creatinine” value in the assay with Male C57BL/6 mice (20 nanomoles peptide i.p. 1 h before and at 24 and 48 h, FIG. 6) is “significantly reduced”. The “increase in blood urea nitrogen” value with Male C57BL/6 mice (20 nanomoles peptide i.p. 1 h before and at 24 and 48 h, FIG. 7) is “significantly reduced”. Further, the “morphology of the kidney (hematoxylin and eosin)” value in the assay on Male C57BL/6 mice (20 nanomoles peptide i.p. 1 h before and at 24 and 48 h, FIG. 9) was “relatively well preserved tubular morphology”. In addition, in the assay on Male C57BL/6 mice (FIG. 10), the “relative potency as cytoprotectants against cisplatin-induced impairment of kidney function (serum creatinine)” value is “approximately equipotent”. For the same substance, in the assay on HK-2 human kidney cells [2], the “reduction in doxorubicin-induced apoptotic cell death” value is “significant dose-dependent reduction”. The “effect on doxorubicin-induced apoptotic cell death (dose-response)” value in assay [3] (doxorubicin 48 hours, FIG. 16) is given as “biphasic dose-response effect”. The “effect on doxorubicin-induced apoptotic cell death” value in assay [3] (highest dose tested (10^−6 M)) was “significantly enhanced”; in assay [3] (lowest dose tested (10^−8 M)), “reduced”. Further, the “lowest dose with significant enhancement of thalidomide-induced apoptotic cell death” value in assay [4] was 10^−8 M. For the same substance, in assay [4] (thalidomide 48 hours, FIG. 19), the “effect on thalidomide-induced apoptotic cell death” value is “dose-dependent enhancement”.
